Test results as given in ChEMBL document CHEMBL4354827, “Discovery of Novel, Potent, Brain-Permeable, and Orally Efficacious Positive Allosteric Modulator of α7 Nicotinic Acetylcholine Receptor [4-(5-(4-Chlorophenyl)-4-methyl-2-propionylthiophen-3-yl)benzenesulfonamide]: Structure-Activity Relationship and Preclinical Characterization” (J Med Chem, 2020).

Assays:
[1] = Cmax in human at 7.5 to 100 mg after 1 to 2.5 hrs; assay type: ADME; conditions: in vivo
[2] = system: Rattus norvegicus; assay: Memory enhancement effect in scopolamine-induced Wistar rat model of amnesia assessed as exploration time for object2 in acquisition trial at 0.15 mg/kg, po for 7 days and measured on day 8 by novel object recognition test (reference value: 15.63 sec); assay type: functional
[3] = system: Rattus norvegicus; assay: Memory enhancement effect in scopolamine-induced Wistar rat model of amnesia assessed as exploration time for familiar object in retention trial at 0.15 mg/kg, po for 7 days and measured on day 8 by novel object recognition test (reference value: 8.59 sec); assay type: functional
[4] = Metabolic stability in rat liver microsomes assessed as compound remaining at 1 uM preincubated for 5 mins followed by NADPH addition and measured after 30 mins by LC-MS/MS analysis; assay type: ADME, Microsome; conditions: read-out: Stability
[5] = Protein binding in mouse plasma at 5 uM incubated for 16 hrs under shaking condition by LC/MS/MS based rapid equilibrium dialysis method; assay type: ADME, cell-free; conditions: read-out: PPB (converted)
[6] = Drug concentration in Wistar rat brain at 10 mg/kg, po after 8 hrs by LC-MS/MS analysis; assay type: ADME, organism-based; conditions: read-out: Drug uptake
[7] = system: Rattus norvegicus; assay: Memory enhancement effect in time-delay induced Wistar rat model of amnesia assessed as exploration time for familiar object in retention trial at 0.5 mg/kg, po for 7 days and measured on day 8 by novel object recognition test (reference value: 10.20 sec); assay type: functional
[8] = system: Rattus norvegicus; assay: Memory enhancement effect in scopolamine-induced Wistar rat model of amnesia assessed as exploration time for object1 in acquisition trial at 0.05 mg/kg, po for 7 days and measured on day 8 by novel object recognition test (reference value: 16.11 sec); assay type: functional
[9] = Clearance in Wistar rat at 1 mg/kg, iv after 0.083 to 144 hrs by LC-MS/MS analysis; assay type: ADME, organism-based; conditions: in vivo
[10] = Unbound brain-to-plasma concentration ratio in Wistar rat at 10 mg/kg, po after 8 hrs by LC-MS/MS analysis; assay type: ADME, organism-based; conditions: read-out: K(p,uu,brain)
[11] = Drug concentration in Wistar rat plasma at 10 mg/kg, po after 4 hrs by LC-MS/MS analysis; assay type: ADME, organism-based
[12] = system: Rattus norvegicus; assay: Memory enhancement effect in time-delay induced Wistar rat model of amnesia assessed as increase in novel object discrimination at 3 mg/kg, po administered as single dose after acquisition trial by novel object recognition test (reference value: 0.08); assay type: functional
[13] = system: Rattus norvegicus; assay: Memory enhancement effect in scopolamine-induced Wistar rat model of amnesia assessed as exploration time for familiar object in retention trial at 0.5 mg/kg, po for 7 days and measured on day 8 by novel object recognition test (reference value: 8.59 sec); assay type: functional
[14] = system: Rattus norvegicus; assay: Memory enhancement effect in time-delay induced Wistar rat model of amnesia assessed as exploration time for familiar object in retention trial at 0.15 mg/kg, po for 7 days and measured on day 8 by novel object recognition test (reference value: 10.20 sec); assay type: functional
[15] = system: Rattus norvegicus; assay: Memory enhancement effect in scopolamine-induced Wistar rat model of amnesia assessed as exploration time for object1 in acquisition trial at 0.15 mg/kg, po for 7 days and measured on day 8 by novel object recognition test (reference value: 16.11 sec); assay type: functional
[16] = system: Rattus norvegicus; assay: Memory enhancement effect in scopolamine-induced Wistar rat model of amnesia assessed as increase in exploration time for novel object in retention trial at 0.5 mg/kg, po administered as single dose and measured on day 9 by novel object recognition test (reference value: 12.09 sec); assay type: functional
[17] = AUCt in Wistar rat brain at 10 mg/kg, po after 1 to 144 hrs by LC-MS/MS analysis; assay type: ADME, organism-based
[18] = system: Rattus norvegicus; assay: Memory enhancement effect in scopolamine-induced Wistar rat model of amnesia assessed as increase in exploration time for novel object in retention trial at 0.05 mg/kg, po administered as single dose and measured on day 9 by novel object recognition test (reference value: 12.09 sec); assay type: functional
[19] = Drug concentration in Wistar rat brain at 10 mg/kg, po after 4 hrs by LC-MS/MS analysis; assay type: ADME, organism-based; conditions: read-out: Drug uptake
[20] = Brain to plasma permeability coefficient, Kp in Wistar rat at 10 mg/kg, po after 48 hrs by LC-MS/MS analysis; assay type: ADME, organism-based
[21] = system: Rattus norvegicus; assay: Memory enhancement effect in scopolamine-induced Wistar rat model of amnesia assessed as exploration time for object1 in acquisition trial at 0.05 mg/kg, po administered as single dose and measured on day 8 by novel object recognition test (reference value: 16.11 sec); assay type: functional
[22] = Oral bioavailability in Beagle dog at 10 mg/kg after 0.25 to 144 hrs by LC-MS/MS analysis; assay type: ADME, organism-based, Canis lupus familiaris; conditions: in vivo
[23] = molecular target: Cytochrome P450 2D6 (Homo sapiens, UniProt P10635); assay: Inhibition of CYP2D6 (unknown origin) up to 10 uM; assay type: ADME
Chain of Cytochrome P450 2D6 (P10635 whole entry): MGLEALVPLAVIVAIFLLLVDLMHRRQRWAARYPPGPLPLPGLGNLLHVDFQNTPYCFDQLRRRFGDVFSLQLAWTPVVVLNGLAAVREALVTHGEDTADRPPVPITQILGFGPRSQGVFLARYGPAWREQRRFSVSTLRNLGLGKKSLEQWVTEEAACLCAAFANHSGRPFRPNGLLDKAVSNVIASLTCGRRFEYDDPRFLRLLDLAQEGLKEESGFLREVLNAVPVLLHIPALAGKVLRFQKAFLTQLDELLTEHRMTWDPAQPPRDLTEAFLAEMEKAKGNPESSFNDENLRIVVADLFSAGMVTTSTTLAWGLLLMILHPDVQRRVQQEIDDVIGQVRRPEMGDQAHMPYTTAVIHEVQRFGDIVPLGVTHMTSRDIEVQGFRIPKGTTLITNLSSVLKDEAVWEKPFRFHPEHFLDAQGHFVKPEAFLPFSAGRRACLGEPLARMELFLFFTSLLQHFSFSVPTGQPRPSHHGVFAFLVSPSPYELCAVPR

[24] = Drug level in Wistar rat plasma at 0.05 mg/kg, po; assay type: ADME, organism-based; conditions: in vivo
[25] = Drug concentration in Wistar rat plasma at 10 mg/kg, po after 48 hrs by LC-MS/MS analysis; assay type: ADME, organism-based
[26] = Half life in Beagle dog at 1 mg/kg, iv after 0.083 to 144 hrs by LC-MS/MS analysis; assay type: ADME, organism-based, Canis lupus familiaris; conditions: in vivo
[27] = system: Rattus norvegicus; assay: Memory enhancement effect in scopolamine-induced Wistar rat model of amnesia assessed as increase in discrimination index at 0.05 mg/kg, po for 7 days and measured on day 8 by novel object recognition test (reference value: 0.21); assay type: functional
[28] = system: Rattus norvegicus; assay: Memory enhancement effect in time-delay induced Wistar rat model of amnesia assessed as increase in novel object discrimination index at 1 mg/kg, po administered as single dose and measured on day 9 by novel object recognition test (reference value: 0.03); assay type: functional
[29] = Drug metabolism in human pooled liver microsomes assessed as metabolic rate at 1 uM preincubated for 5 mins followed by NADPH addition after 30 mins by LC-MS/MS analysis; assay type: ADME, Microsome; conditions: 0.5 h
[30] = system: Rattus norvegicus; assay: Memory enhancement effect in time-delay induced Wistar rat model of amnesia assessed as increase in discrimination index at 0.05 mg/kg, po for 7 days and measured on day 8 by novel object recognition test (reference value: 0.12); assay type: functional
[31] = Cmax in Beagle dog at 10 mg/kg, po after 0.25 to 144 hrs by LC-MS/MS analysis; assay type: ADME, organism-based, Canis lupus familiaris; design: dose 10 mg/kg, route oral; conditions: in vivo
[32] = system: Rattus norvegicus; assay: Memory enhancement effect in time-delay induced Wistar rat model of amnesia assessed as exploration time for object1 at 3 mg/kg, po administered as single dose after acquisition trial by novel object recognition test (reference value: 19.09 sec); assay type: functional
[33] = system: Rattus norvegicus; assay: Memory enhancement effect in time-delay induced Wistar rat model of amnesia assessed as exploration time for familiar object in retention trial at 3 mg/kg, po administered as single dose and measured on day 9 by novel object recognition test (reference value: 13.05 sec); assay type: functional
[34] = system: Rattus norvegicus; assay: Memory enhancement effect in time-delay induced Wistar rat model of amnesia assessed as exploration time for object1 in acquisition trial at 3 mg/kg, po administered as single dose and measured on day 8 by novel object recognition test (reference value: 13.95 sec); assay type: functional
[35] = Drug level in scopolamine-induced Sprague-Dawley rat plasma at 0.05 mg/kg, po for 7 days; assay type: ADME, organism-based

CCC(=O)c1sc(-c2ccc(Cl)cc2)c(C)c1-c1ccc(S(N)(=O)=O)cc1
Cmax [1]: 25.1 to 1620 ng/mL
Time [2]: 13.41 s
Time [3]: 4.86 s
remaining at 0.5 h, 1 µM [4]: 94%
fraction unbound at 16 h, 5 µM [5]: 0.0116
concentration at 8 h [6]: 6390 nM
Time [7]: 4.9 s
Time [8]: 16.07 s
clearance [9]: 1.3 mL/min/kg
Kp uu at 8 h [10]: 0.93
concentration at 4 h [11]: 850 nM
Activity_index [12]: 0.5
Time [13]: 6.63 s
Time [14]: 3.79 s
Time [15]: 14.08 s
Time [16]: 15.06 s
AUC(0-t) [17]: 301 µM·h
Time [18]: 14.65 s
concentration at 4 h [19]: 9220 nM
Kp at 48 h [20]: 9.52
Time [21]: 16.07 s
bioavailability [22]: 60%
inhibition (INH) [23]: Not Active
concentration [24]: 40 nM
concentration at 48 h [25]: 620 nM
half-life [26]: 88 h
Activity_index [27]: 0.3
Activity_index [28]: 0.44
Drug metabolism [29]: 0.01 nmol/min/mg
Activity_index [30]: 0.27
Cmax [31]: 5000 nM
Time [32]: 17.81 s
Time [33]: 8.92 s
Time [34]: 25.56 s
concentration at 168 h [35]: 60 nM
